The source of these data is article PMC6161602, “Synthesis and characterisation of (Z)-styrylbenzene derivatives as potential selective anticancer agents” (Journal of Enzyme Inhibition and Medicinal Chemistry, 2018).

For series [1], the system named is MCF-7 breast cancer cell. The experiment in a line: MTT cell growth inhibition assay, MCF-7. The class given is cell-based, human. The note with it: for IC50: Homo sapiens, MCF7, MTT, 48 h incubation, MCF-7. An excerpt:
(§1) All human cell lines were used in this study. MGC-803 late-stage differentiation gastric cancer cell, A549 lung cancer cell, HepG2 hepatoma cell, AGS gastric cancer cell, BEL-7402 liver cancer cell, HCT-116 colorectal cancer cell, HeLa cervical cancer cell, SGC-7901 early differentiation gastric cancer cell, L-02 normal liver cell, MCF-7 breast cancer cell, and MCF-10A normal breast cell were initially purchased from American Type Culture Collection (ATCC, Manassas, VA, USA). RPMI-1640 media, Dulbecco’s modified Eagle’s medium (DMEM), and foetal bovine serum (FBS) were provided from Gibco Company (Grand Island, NY, USA). The cells were maintained in DMEM or RPMI-1640, supplemented with 10% FBS, 100 IU/mL penicillin and […] (Grand Island, NY, USA), and at 37 °C in a humidified atmosphere containing 5% CO2.
(§2) Cells were plated in 96-well plates at a density of 30–40% to ensure exponential growth throughout the experimental period, and then allowed to adhere for 1 day[21]. Next, the cells were treated with four serial concentrations (1, 10, 50, and 100 µM) of each compound. Taxol, CA-4, and CA-4P (phosphorylated form of CA-4) were used as positive controls. After 48 h incubation, MTT solution was added to each well at a final concentration of 2 mg/mL, and incubated for an additional 4 h. Next, the MTT solution was removed and 150 µL of dimethyl sulphoxide (DMSO)/well was added (Sigma-Aldrich, St Louis, MO, USA). The plates were shaken vigorously at RT to ensure complete solubilisation, and absorption at 492 nm was determined.
(§3) According to standard protocol, preliminary in vitro anti-proliferative activities of the synthesised compounds were evaluated by MTT assay, using nine human cancer cell lines (MGC-803, A549, HepG2, AGS, BEL-7402, HCT116, HeLa, SGC-7901, and MCF-7) and two normal human cell lines (L-02 and MCF-10A), and compared with those of CA-4, CA-4P, and taxol.

Series [2] relates to HCT116 cells. In words: MTT cell growth inhibition assay, HCT116. The class given is cell-based, human. Conditions: for IC50: Homo sapiens, HCT-116, MTT, 48 h incubation, HCT116.
Text: as §1, §2, §3

Series [3] relates to BEL-7402 cells. The experiment in a line: Analysis of apoptosis by flow cytometry (Annexin V-FITC/PI). The note with it: BEL-7402, 0.1 µM, 12 h; vehicle 4.7%. The format is cell-based, human. The procedure:
Apoptosis was detected using an apoptosis detection kit. BEL-7402 cells were plated in 6-well plates (5.0 × 10^5 cells/well) and incubated at 37 °C overnight. Exponentially growing cells were then incubated with 6h at either 0.01 or 0.1 µM, or taxol at 0.1 µM. Vehicle group was treated with 0.1% DMSO. Following 12 h of incubation, cells were analysed for apoptosis as previously described, using a FACSCalibur flow cytometer with Cell Quest software (Becton-Dickinson, Franklin Lakes, NJ, USA).
Background: In flow cytometry, cells or beads pass a laser one at a time.

Series [4] relates to HepG2 hepatoma cell. In words: MTT cell growth inhibition assay, HepG-2. The class given is cell-based, human. Conditions: for IC50: Homo sapiens, HepG2, MTT, 48 h incubation, HepG-2.
Text: as §1, §2, §3

Series [5] relates to L-02 normal liver cell. The experiment in a line: MTT cell growth inhibition assay, L-02 (normal). Conditions: Homo sapiens, 48 h incubation, L-02 normal cells. The format is cell-based, human.
Text: as §1, §2, §3

Series [6] concerns HeLa cervical cancer cell. The experiment in a line: MTT cell growth inhibition assay, HeLa. Conditions: Homo sapiens, 48 h incubation. The format is cell-based, human.
Text: as §1, §2, §3

The test system of series [7] is SGC-7901 early differentiation gastric cancer cell. The experiment in a line: MTT cell growth inhibition assay, SGC-7901. The format is cell-based, human. The note with it: Homo sapiens, 48 h incubation.
Text: as §1, §2, §3

Series [8] relates to MGC-803 cells. In words: MTT cell growth inhibition assay, MGC-803. The format is cell-based, human. Conditions: for IC50: MTT, 48 h incubation, MGC-803.
Text: as §1, §2, §3

For series [9], the system named is MCF-10A normal breast cell. In words: MTT cell growth inhibition assay, MCF-10A (normal). The format is cell-based, human. The note with it: Homo sapiens, 48 h incubation, MCF-10A normal cells.
Text: as §1, §2, §3

Series [10] concerns BEL-7402 cells. The experiment in a line: MTT cell growth inhibition assay, BEL-7402. Conditions: for IC50: Homo sapiens, MTT, 48 h incubation, Bel-7402. The class given is cell-based, human.
Text: as §1, §2, §3

Series [11] has as its system A549 lung cancer cell. In words: MTT cell growth inhibition assay, A549. The format is cell-based, human. Conditions: for IC50: Homo sapiens, MTT, 48 h incubation, A549.
Text: as §1, §2, §3

The test system of series [12] is AGS cells. The experiment in a line: MTT cell growth inhibition assay, AGS. The class given is cell-based, human. Conditions: for IC50: Homo sapiens, MTT, 48 h incubation, AGS.
Text: as §1, §2, §3

Series [13] relates to HeLa cells. Also on record: method as in PMID 27887843. Conditions: printed in Figure 1, previous experiment ref 2; cited from earlier work.
In series [14] the test system is nine human cancer cell lines (MGC-803, A549, HepG2, AGS, BEL-7402, HCT116, HeLa, SGC-7901, and MCF-7). In words: MTT assay, panel of cell lines (result in words). The format is cell-based. The note with it: against all nine cancer cell lines.
Text: as §1, §2, §3
On the technique in general: Tetrazolium dyes change colour on reduction, which living cells bring about.

The test system of series [15] is L-02 cells. Details: method as in PMID 27887843. The note with it: L-02, printed in Figure 1, previous experiment ref 2; cited from earlier work.

Structures are written as SMILES.

On to `CC(=O)O[C@H]1C(=O)[C@@]2(C)[C@H]([C@H](OC(=O)c3ccccc3)[C@]3(O)C[C@H](OC(=O)[C@H](O)[C@@H](NC(=O)c4ccccc4)c4ccccc4)C(C)=C1C3(C)C)[C@]1(OC(C)=O)CO[C@@H]1C[C@@H]2O` [Taxol, reference compound], for which the IC50 in [1] is 0.08 ± 0.01 µM; in series [2], 0.03 ± 0.01 µM; in series [4], 0.94 ± 0.03 µM; in [5], greater than 100 µM; in [6], 13 ± 0.47 µM; in series [7] it was greater than 100 µM. Further, the IC50 in series [8] (Homo sapiens, MGC-803, 48 h) was less than 0.06 µM; in [8], 0.06 ± 0.01 µM; in [9] it was 0.18 ± 0.02 µM; in [10], 0.09 ± 0.02 µM; in series [11] it was 0.44 ± 0.02 µM; in series [12] it was 0.02 ± 0.01 µM. For the same compound, the “SI IC50 (MCF-10A/MCF-7)” value in series [1] (selectivity index, IC50 (MCF-10A)/IC50 (MCF-7)) is given as greater than 2.2. The “SI IC50 (L-02/HCT116)” value in [2] (selectivity index, IC50 (L-02)/IC50 (HCT116)) is on record as greater than 3333. Moreover, the “total apoptotic cells (early + late apoptotic cells)” value in series [3] is on record as 10.7%. In addition, in [4] (selectivity index, IC50 (L-02)/IC50 (HepG-2)), the “SI IC50 (L-02/HepG-2)” value is recorded as greater than 106.3. In series [8] (selectivity index, IC50 (L-02)/IC50 (MGC-803)), the “SI IC50 (L-02/MGC-803)” value is greater than 1666. In addition, the “SI IC50 (L-02/BEL-7402)” value in series [10] (selectivity index, IC50 (L-02)/IC50 (BEL-7402)) is greater than 1111. In addition, the “SI IC50 (L-02/A549)” value in [11] (selectivity index, IC50 (L-02)/IC50 (A549)) is listed as greater than 227.2. Besides, the “SI IC50 (L-02/AGS)” value in [12] (selectivity index, IC50 (L-02)/IC50 (AGS)) is reported as greater than 5000.

In the case of `Oc1ccc(/C=C/c2cc(O)cc(O)c2)cc1` [Resveratrol, (E)-3,5,4′-trihydroxystilbene], the IC50 in series [13] is 120 µM.

Compound `COc1cc(/C(C#N)=C/c2ccccn2)cc(OC)c1OC` [Compound 7b, (Z)-3-(Pyridin-2-yl)-2-(3,4,5-trimethoxyphenyl)acrylonitrile] showed a melting point of 128 to 130 °C. In series [1], this compound displayed an IC50 of 16 ± 5.67 µM. The compound also returned an IC50 in [2] greater than 100 µM. This compound had an IC50 in series [4] greater than 100 µM. In [5], this compound showed an IC50 greater than 100 µM. For the same compound, the “in vitro anticancer activity” value in [14] is “extremely poor”. In series [6], this compound had a half-inhibitory concentration (IC50) greater than 100 µM. Besides, the IC50 in series [7] was greater than 100 µM. For the same compound, in series [8] (Homo sapiens, MGC-803, 48 h), the IC50 was greater than 100 µM. This compound had an IC50 in series [9] of 33.4 ± 17.4 µM. For the same compound, the IC50 in series [10] was 44.6 ± 32.7 µM. For the same compound, in [11], the IC50 is greater than 100 µM. Moreover, the IC50 in [12] is greater than 100 µM.

For the compound `CCOc1ccc(/C=C(\C#N)c2cc(OC)cc(OC)c2)cc1` [Compound 3], the IC50 in series [13] is 7.7 µM; in series [15] it was greater than 100 µM.

Compound `COc1cccc(/C=C(\C#N)c2cc(OC)c(OC)c(OC)c2)c1` [Compound 6c, (Z)-3-(3-Methoxyphenyl)-2-(3,4,5-trimethoxyphenyl)acrylonitrile] showed a melting point of 144 to 146 °C. In series [1], this compound displayed an IC50 of 65.1 ± 6.64 µM. The IC50 in [2] is greater than 100 µM. Moreover, the IC50 in series [4] was greater than 100 µM. The same compound showed an IC50 in series [5] greater than 100 µM. In addition, in series [14], the “in vitro anticancer activity” value was “extremely poor”. In addition, the IC50 in series [6] was greater than 100 µM. Further, in series [7], the half-inhibitory concentration (IC50) was greater than 100 µM. The compound also returned an IC50 in series [8] (Homo sapiens) of 22.6 ± 9.25 µM. In [9], the IC50 was greater than 100 µM. In series [10], the IC50 is greater than 100 µM. Moreover, in series [11], the IC50 was greater than 100 µM. In addition, in series [12], the IC50 was greater than 100 µM.

Broadly, the IC50 is the point on the concentration scale where inhibition reaches its midpoint. Broadly, the melting point is the temperature of the solid-liquid transition.
